{"source": "paper PMC10155203", "about": "(Molecular Pharmaceutics, 2023)", "key": {"[1]": {"conditions": "cited from earlier work; for median Tmax: humans, single oral dose"}, "CYP3A4": {"tested_on": "CYP3A4", "parameters": "method as in PMID 27693678", "conditions": "fitted using in vivo data; cited from earlier work"}, "[2]": {"assay": "Study 1: food effect clinical study, single oral dose of encorafenib 100 mg, fasted vs high-fat meal, plasma PK and safety", "type": "in vivo, human", "conditions": "for AUC(0-inf) / AUC(0-t) / Cmax: GM (GCV%); for half-life: arithmetic mean ± SD; for Vd/F / CL/F: mean ± SD; for Vd/F: read-out: Vz/F; for Tmax: median (range)", "procedure": "Both studies were conducted at the Celerion Clinical Research Unit in Lincoln, NE. The trial protocols and informed consent documentation were reviewed and approved by the institutional review boards at the center. These studies were conducted in compliance with the ethical principles originating in or derived from the Declaration of Helsinki and in compliance with all International Council for Harmonization Good Clinical Practice Guideline.\nIn study 1, participants were randomized to 2 treatment sequences. Participants were either fasted or fed a high-fat meal on day 1 of the first period and received the alternate treatment on day 1 of the second period. Each dose was separated by a washout period of at least 7 days. […] The high-fat breakfast consisted of 2 slices of buttered toast, 2 fried eggs, 2 strips of bacon, 4 oz. of hash brown potatoes, and 240 mL of whole milk. This breakfast met the criteria specified in the FDA guidance for a high-fat meal.[6] […] Water (except water provided with each dosing) was restricted 1 h prior to and 1 h after each study drug administration but was allowed ad libitum at all other times. Participants were housed from day −1 of each period until after the 36 h blood draw and/or study procedures on day 2. Participants returned to the clinical research unit for the 48 and 72 h blood draws.\nAdditionally, participants were instructed not to crush, split, or chew the study drug.\nSerial blood samples for PK were collected in Study 1 predose and at 0.25, 0.5, 1, 1.5, 2, 2.5, 3, 3.5, 4, 5, 6, 8, 10, 12, 24, 36, and 72 h after the day 1 dose in each period.\nThe actual sample collection times were used for the PK parameter analysis.\nThe overall safety profile was characterized by laboratory test abnormalities, physical examination, vital signs, ECGs, and AEs. […] Triplicate ECGs were also measured at the end of the studies or upon early termination.\nThese were back-transformed to obtain the geometric LSMs and ratios of LSMs (geometric mean ratios [GMRs]), and the corresponding 90% CIs of the GMRs, on the original scale."}, "[3]": {"assay": "PBPK modeling in GastroPlus 9.8 (model parameters and predicted absorption)", "parameters": "species or system human", "conditions": "estimated; increased from GastroPlus default value", "procedure": "Simulations were performed using the commercially available PBPK modeling platform GastroPlus 9.8 (Simulations Plus, Inc., Lancaster, CA). Input and final parameters for the model were published by Del Frari et al.[29] […] The fasted, fed, and PPI states were predicted for the encorafenib commercial capsule. All input data for the platform are shown in Table 2 and were based on physicochemical properties of the compound, formulation characteristics and absorption, distribution, metabolism, and excretion properties. […] Related to dissolution, the Johnson model was selected. This model is an extension of the Nernst–Brunner dissolution model and accounts for changing particle radius during dissolution as well as for dissolution of cylindrical particles. […] Gathered information concerning physicochemical and biopharmaceutical properties was obtained in-house. Fasted state physiology in the human GI tract was simulated by selecting the fluid volumes as observed by the magnetic resonance imaging study of Mudie et al.[30] to address biorelevant fluid volumes in the different GI compartments. In the case of the fed state, the stomach transit time was adjusted and optimized to a value of 2.25 h for consistency with the observed PK data, and the physiology was adjusted to fed state conditions (default settings). […]"}, "CYP2C19": {"tested_on": "CYP2C19", "parameters": "method as in PMID 27693678", "conditions": "fitted using in vivo data; cited from earlier work"}, "[4]": {"assay": "Physicochemical and biopharmaceutical properties obtained in-house (PBPK input, experimental data)", "procedure": "Simulations were performed using the commercially available PBPK modeling platform GastroPlus 9.8 (Simulations Plus, Inc., Lancaster, CA). Input and final parameters for the model were published by Del Frari et al.[29] […] The fasted, fed, and PPI states were predicted for the encorafenib commercial capsule. All input data for the platform are shown in Table 2 and were based on physicochemical properties of the compound, formulation characteristics and absorption, distribution, metabolism, and excretion properties. […] Related to dissolution, the Johnson model was selected. This model is an extension of the Nernst–Brunner dissolution model and accounts for changing particle radius during dissolution as well as for dissolution of cylindrical particles. […] Gathered information concerning physicochemical and biopharmaceutical properties was obtained in-house. Fasted state physiology in the human GI tract was simulated by selecting the fluid volumes as observed by the magnetic resonance imaging study of Mudie et al.[30] to address biorelevant fluid volumes in the different GI compartments. In the case of the fed state, the stomach transit time was adjusted and optimized to a value of 2.25 h for consistency with the observed PK data, and the physiology was adjusted to fed state conditions (default settings). To simulate PPI conditions, the fasted state physiology was selected (magnetic resonance imaging fluid volumes). However, gastric pH was set to a constant value of pH 7 during the simulation instead of the normal gastric pH of 1.3, as used in the fasted state default settings. […] However, the same results were observed even when the gastric pH was adjusted to a value of 4 or 5 (data not shown).[31] Distribution and clearance parameters were adjusted to reflect a 2-compartmental approach based on the average PK profile of the 100 mg dose as administered in the fasted state to healthy participants (average weight, 83 kg)."}, "[5]": {"conditions": "single radiolabeled dose of 100 mg"}, "[6]": {"conditions": "human, plasma, po, 100 mg, study 1, 100 mg single oral dose, fasted"}, "[7]": {"conditions": "human, plasma, po, 100 mg, study 1, 100 mg single oral dose, fed"}, "[8]": {"conditions": "study 1, 100 mg single oral dose, fasted"}, "[9]": {"conditions": "study 1, 100 mg single oral dose, fed"}}, "note": "Where two headings read alike, the source gives them in different places."}
{"compound": "COC(=O)N[C@@H](C)CNc1nccc(-c2cn(C(C)C)nc2-c2cc(Cl)cc(NS(C)(=O)=O)c2F)n1", "note": "[encorafenib, Encorafenib]", "values": [{"measurement": "dose proportionality", "setting": "[1]; dose range of 50 to 700 mg QD after a single dose", "result": "approximately dose proportional"}, {"measurement": "apparent volume of distribution", "setting": "[1]; geometric mean (coefficient of variation 70%)", "result": 164, "unit": "L"}, {"measurement": "median Tmax", "setting": "[1]; fasted state", "result": "approximately 2 h"}, {"measurement": "median Tmax", "setting": "[1]; fed state", "result": "~4", "unit": "h"}, {"measurement": "dose absorbed", "setting": "[1]; oral", "result": "at least 86%"}, {"measurement": "administered dose recovered in feces", "setting": "[1]; [5]", "result": 47, "unit": "%"}, {"measurement": "administered dose recovered in feces unchanged", "setting": "[1]; [5]", "result": 5, "unit": "%"}, {"measurement": "administered dose recovered in urine", "setting": "[1]; [5]", "result": 47, "unit": "%"}, {"measurement": "administered dose recovered in urine unchanged", "setting": "[1]; [5]", "result": 2, "unit": "%"}, {"measurement": "gut CYP3A4 Km", "setting": "CYP3A4", "result": 213.9, "unit": "mg/L"}, {"measurement": "gut CYP3A4 Vmax", "setting": "CYP3A4", "result": 0.0945, "unit": "mg/s"}, {"measurement": "liver CYP3A4 Km", "setting": "CYP3A4", "result": 213.9, "unit": "mg/L"}, {"measurement": "liver CYP3A4 Vmax", "setting": "CYP3A4", "result": 0.0945, "unit": "mg/s"}, {"measurement": "AUC(0-inf)", "setting": "[2]; [6]", "result": 3120, "unit": "ng·h/mL"}, {"measurement": "AUC(0-t)", "setting": "[2]; [6]", "result": 3130, "unit": "ng·h/mL"}, {"measurement": "Cmax", "setting": "[2]; [6]", "result": 962, "unit": "ng/mL"}, {"measurement": "half-life", "setting": "[2]; [6]", "result": "4.79 ± 3.79", "unit": "h"}, {"measurement": "Vd/F", "setting": "[2]; [6]", "result": "226 ± 207", "unit": "L"}, {"measurement": "Tmax", "setting": "[2]; human, plasma, po, 100 mg, study 1, 100 mg single oral dose, fasted, read-out: Tmax", "result": 1.5, "unit": "h"}, {"measurement": "AUC(0-t)", "setting": "[2]; [7]", "result": 3020, "unit": "ng·h/mL"}, {"measurement": "Cmax", "setting": "[2]; [7]", "result": 621, "unit": "ng/mL"}, {"measurement": "half-life", "setting": "[2]; [7]", "result": "5.61 ± 3.69", "unit": "h"}, {"measurement": "Vd/F", "setting": "[2]; [7]", "result": "262 ± 163", "unit": "L"}, {"measurement": "Tmax", "setting": "[2]; human, plasma, po, 100 mg, study 1, 100 mg single oral dose, fed, read-out: Tmax", "result": 3.5, "unit": "h"}, {"measurement": "AUC(0-inf)", "setting": "[2]; human, plasma, po, 100 mg, study 1, encorafenib 100 mg single oral dose, fed (high-fat meal)", "result": 3030, "unit": "ng·h/mL"}, {"measurement": "tolerability", "setting": "[2]; single oral dose of 100 mg, healthy participants", "result": "tolerated"}, {"measurement": "changes in vital signs, laboratory values, or ECG measurements", "setting": "[2]; study 1", "result": "No clinically significant changes"}, {"measurement": "participants reporting headache", "setting": "[2]; study 1", "result": 73, "unit": "%"}, {"measurement": "participants who discontinued due to an AE related to encorafenib", "setting": "[2]; study 1", "result": 2, "unit": "participants"}, {"measurement": "severity of AEs", "setting": "[2]; study 1", "result": "all mild in severity"}, {"measurement": "CL/F", "setting": "[2]; [8]", "result": "34.64 ± 14.209", "unit": "L/h"}, {"measurement": "Tmax", "setting": "[2]; [8]", "result": "1.495 (0.997, 3.49) h"}, {"measurement": "CL/F", "setting": "[2]; [9]", "result": "35.13 ± 12.535", "unit": "L/h"}, {"measurement": "Tmax", "setting": "[2]; [9]", "result": "3.499 (2.00, 5.00) h"}, {"measurement": "delay of median Tmax under fed conditions", "setting": "[2]; study 1, fed vs fasted", "result": 2, "unit": "h"}, {"measurement": "Cmax lower in fed state than fasted", "setting": "[2]; study 1, fed vs fasted, 100 mg", "result": 36, "unit": "%"}, {"measurement": "decrease in AUCinf with a high-fat meal", "setting": "[2]; study 1, fed vs fasted, 100 mg", "result": 4, "unit": "%"}, {"measurement": "decrease in AUClast with a high-fat meal", "setting": "[2]; study 1, fed vs fasted, 100 mg", "result": 4, "unit": "%"}, {"measurement": "participants reporting AEs", "setting": "[2]; study 1, following encorafenib in the fasted state", "result": 79, "unit": "%"}, {"measurement": "participants reporting AEs", "setting": "[2]; study 1, following encorafenib in the fed state", "result": 92, "unit": "%"}, {"measurement": "participants reporting flushing", "setting": "[2]; study 1, most common AE", "result": 83, "unit": "%"}, {"measurement": "participants who discontinued due to AEs", "setting": "[2]; study 1, of 40 participants who entered", "result": 6, "unit": "participants"}, {"measurement": "participants reporting AEs", "setting": "[2]; study 1, overall", "result": 95, "unit": "%"}, {"measurement": "mean precipitation time", "setting": "[3]", "result": 90000, "unit": "s"}, {"measurement": "gut CYP2C19 Km", "setting": "CYP2C19", "result": 7.51, "unit": "mg/L"}, {"measurement": "gut CYP2C19 Vmax", "setting": "CYP2C19", "result": 0.00504, "unit": "mg/s"}, {"measurement": "liver CYP2C19 Km", "setting": "CYP2C19", "result": 7.51, "unit": "mg/L"}, {"measurement": "liver CYP2C19 Vmax", "setting": "CYP2C19", "result": 0.00504, "unit": "mg/s"}, {"measurement": "BCS class behavior", "setting": "[4]; amorphous drug in the capsule formulation (amorphous solid dispersion)", "result": "class 1"}, {"measurement": "solubility", "setting": "[4]; aqueous buffer, at pH 6.8, experimental data, read-out: reference solubility (amorphous)", "result": 200, "unit": "µg/mL"}, {"measurement": "amorphous solubility higher than crystalline solubility", "setting": "[4]; at pH 6.8", "result": 20, "unit": "fold"}, {"measurement": "logD", "setting": "[4]; at pH 6.8, experimental data", "result": 1.8}, {"measurement": "solubility", "setting": "[4]; at pH 6.8, experimental data, read-out: reference solubility (crystalline)", "result": 10, "unit": "µg/mL"}, {"measurement": "Biopharmaceutics Classification System (BCS) class", "setting": "[4]; drug substance", "result": "class 2"}, {"measurement": "logP", "setting": "[4]; experimental data", "result": 2.59}, {"measurement": "particle radius", "setting": "[4]; experimental data, PBPK input", "result": 5, "unit": "μm"}, {"measurement": "pKa", "setting": "[4]; experimental data, read-out: pKa (acid)", "result": 6.97}, {"measurement": "pKa", "setting": "[4]; experimental data, read-out: pKa (base)", "result": 4.53}]}
